The test system of one data set is interleukin-6 (IL-6). As to the kind of experiment: Skin organotypic culture analysis: AP-induced IL-6 release into the medium. It is filed as cell-based. Particulars: for IL-6 release (mean ± SD): 24 h, Nil 21.5, AP 57.1. The procedure: (§1) The cultures were then incubated at 37° C., 5% CO2, and 95% relative humidity (standard cell culture conditions) for 24 h. The culture medium was assayed for the pro-inflammatory cytokine interleukin-6 (IL-6) and after washing to remove the AP formulation, the viability of the culture was determined using the Thiazoyl blue (MTT) assay (Mosmann, T. J. Immunol. Methods 65, p55 (1983). IL-6 was determined using an Immunoassay (Quantikine, R&D systems).
(§2) In this Example, skin organotypic cultures (Epiderm™, MatTek, USA) were treated topically with the above-identified AP formulation and the trans-10-cis-12 conjugated linoleic acid (TC CLA) was introduced into the medium. The cultures were then incubated at 37° C., 5% CO2, and 95% relative humidity (standard cell culture conditions) for 24 h. The culture medium was assayed for the pro-inflammatory cytokine interleukin-6 (IL-6) and after washing to remove the AP formulation, the viability of the culture was determined by the method described in Example 2.
(§3) The cultures were then incubated at 37° C., 5% CO2, and 95% relative humidity (standard cell culture conditions) for 24 hours. The culture medium was assayed for the pro-inflammatory cytokine interleukin-6 (IL-6) and after washing to remove the AP formulation, the viability of the culture was determined using the MTT assay. IL-6 was determined using an ELISA assay (R&D systems).

For data set [1], the system named is skin organotypic cultures (Epiderm). As to the kind of experiment: Viability of skin organotypic cultures (MTT assay). In kind it is cell-based. The procedure:
as §1, §2, §3
A general note: Tetrazolium assays rely on reduction of a dye to a coloured formazan, in cell work by metabolically active cells.

For the compound `CC\C=C/C=C/C=C/C=C\CCCCCCCC(=O)O` [cis parinaric acid, cis-parinaric acid], in the data set on interleukin-6 (IL-6) (1-100 μM, Dunnet's test p<0.05), the “AP-induced IL-6 release” value is reported as “significantly decrease”. The “IL-6 release (mean ± SD)” value was 26.8 in the data set on interleukin-6 (IL-6) (Table 14: 1.0 μM (+ AP)), 23.3 in the data set with interleukin-6 (IL-6) (Table 14: 10.0 μM (+ AP)) and 25.7 in the data set on interleukin-6 (IL-6) (Table 14: 100.0 μM (+ AP)). For the same compound, the Culture viability entry in data set [1] is given as “not significantly different”.

The values are drawn from patent US6713051B2, “Antiperspirant or deodorant compositions” (Unilever Home & Personal Care USA division of Conopco, Inc., priority 2001, dated 2004).
